These are literature values, as cited in patent publication US20220195167A1, “COMPOSITIONS COMPRISING STYRENATED BLOCK COPOLYMER, NON-POLAR OIL AND POLAR OIL” (L'OREAL, priority 2020, published 2022).

As usually defined, the log P is a log measure of how a compound divides between an organic and an aqueous phase.

As to `CCCCCCCCCCCCCCCC(=O)OC(C)C` [Isopropyl palmitate], the “log P” value is 8.49.
Regarding `CC(C)CCCCCCCOC(=O)C(C)(C)C` [Isodecyl neopentanoate], the “log P” value is on record as 6.00.
On to `CC(C)CCCCCCCCCCCCCCCOC(=O)C(C)(C)C` [Isostearyl neopentanoate], for which the log partition coefficient (log P) was 10.25.
`CC(C)CCCCCCCCCCCCCCC(=O)OC(C)C` [Isopropyl isostearate]: the “log P” value is recorded as 9.37.
For `CCCCCCCC(=O)OCC(COC(=O)CCCCCCC)OC(=O)CCCCCCC` [Tricaprylin], the “log P” value was 9.33.
